From patent publication US20060014734A1, “Immediate release pharmaceutical formulation” (priority 2002, published 2006) come the findings set out here.

A short description of data set [1]: Storage stability of liquid formulations. It is filed as physicochemical. As for the experimental part:
The pH of this solution was set to 3.8 by addition of HCl. The solubility of Compound A is at least 1000 times higher in this vehicle compared to water alone. Formulations of Compound A in this vehicle are stable for at least 3 months at <−15° C.

A short description of data set [2]: Nanoparticle preparation: particle size and its stability. It is filed as physicochemical. Particulars: for nanoparticle size: about 100 mM ethanol stock with 25% (w/w) Miglyol, diluted 1/10 in 0.2% PVP and 0.25 mM SDS in water, ultrasonication; for particle sizes after 6 hours at room temperature: nanoparticles after 1/10 dilution in 0.2% PVP and 0.25 mM SDS in water. How it is done:
In order to prepare nanoparticles a stock solution of Compound A of about 100 mM in ethanol was used. Included was also 25% (w/w) Miglyol, calculated on the amount of the substance. The solutions were diluted 1/10 with the stabilizer solution, consisting of 0.2% (w/w) PVP and 0.25 mM SDS in water. The mixing, which is considered as a critical parameter during the nanoparticle preparation, was rapid and instant. The drug solution was rapidly injected into the stabilizer solution during ultrasonication. After the 1/10 dilution in the aqeous solution, nanoparticles of about 150 nm were achieved. After 6 hours at room temperature, the particle sizes were unchanged.
To prepare nanoparticles a stock solution of Compound B of about 100 mM in ethanol was used. Included was also 25% (w/w) Miglyol, calculated on the amount of the substance. The solutions were diluted 1/10 with a stabilizer solution consisting of 0.2% (w/w) PVP and 0.25 mM SDS in water. The critical mixing stage was rapid and instant:—The drug solution was rapidly injected into the stabilizer solution during ultrasonication. After 1/10 dilution in the aqeous solution, nanoparticles of about 110 nm were obtained. After 6 hours at room temperature, the particle sizes were unchanged.

The nature of data set [3]: Solubility in vehicle compared to water alone. It is filed as physicochemical.
A further data set is described as follows: pH of the formulation. In kind it is physicochemical. How it is done: A formulation was prepared by dissolving Compound A in acidified PEG 400/ethanol/water 20/10/70 (w/w) % that was followed by gently stirring. The pH of this solution was 3.6. The solubility of Compound A is at least 250 times higher in this vehicle compared to water alone.
A formulation was prepared by dissolving Compound E in 9 mg/ml NaCl by gently stirring. The pH obtained in this formulation is 8-9.
A formulation was prepared by dissolving Compound F in 9 mg/ml NaCl by gently stirring. The pH obtained in this formulation is 3-4. Formulations of F in this vehicle are stable for at least 2 weeks at room temperature and below.

The nature of data set [4]: Plasma concentration 1 hour after oral or subcutaneous administration of solution to rats.
Experimental: A formulation was prepared by dissolving Compound C in saline/ethanol/solutol 90/5/5 (w/w) % followed by gently stirring.

Take `CO/N=C(\N)c1ccc(CNC(=O)[C@@H]2CCN2C(=O)[C@H](O)c2cc(Cl)cc(OC(F)F)c2)cc1` [Compound A, Ph(3-Cl)(5-OCHF2)—(R)CH(OH)C(O)—(S)Aze-Pab(OMe)]: the “time the formulation is stable” value was “at least 3 months” in data set [1] (Example 10: acidified PEG 400/ethanol/water 40/5/55, pH 3.8, at <−15° C.); “at least 2 months” in data set [1] (Example 57: PEG 400/ethanol/water 25/10/65, in a freezer); “at least 1 month” in data set [1] (Example 60: ethanol, citric acid and water, pH 3.2, in a freezer); “at least 3 months” in data set [1] (Example 61: citric acid in physiological saline, pH 3.6, in a freezer); “at least 1 month” in data set [1] (Example 62: PEG 400/ethanol/water 40/5/55 containing citric acid, pH 3.6, in a freezer); “at least 3 months” in data set [1] (Example 67: citric acid in physiological saline, pH 3.6, in a freezer). In addition, in data set [1] (Example 28: 130 μmol/mL in ethanol), the “time the substance is stable in this formulation” value is “more than 1 week”. The nanoparticle size result in data set [2] is reported as “about 150 nm”. For the same molecule, the “particle sizes after 6 hours at room temperature” value in data set [2] is “unchanged”. The “solubility in this vehicle compared to water alone” value in data set [3] (Example 4: PEG 400/ethanol/water 50/5/45 (w/w) %) is listed as “at least 1000 times”; in data set [3] (Example 5: PEG 400/ethanol/water 20/10/70 (w/w) %), “at least 100 times”; in data set [3] (Example 6: acidified PEG 400/ethanol/water 20/10/70, water with 50 μmol/mL tartaric acid, pH 3.6), “at least 250 times”; in data set [3] (Example 7: PEG 400/ethanol/water 30/5/65 (w/w) %), “at least 200 times”; in data set [3] (Example 8: acidified PEG 400/ethanol/water 30/5/65, tartaric acid, HCl to pH 3.6) it was “at least 400 times”; in data set [3] (Example 9: PEG 400/ethanol/water 40/5/55 (w/w) %) it was “at least 600 times”. The “solubility in this vehicle compared to water alone” value is “at least 1000 times” in data set [3] (Example 10: acidified PEG 400/ethanol/water 40/5/55, tartaric acid, HCl to pH 3.8); “at least 700 times” in data set [3] (Example 11: Hydroxypropyl-β-cyclodextrin/water 40/60 (w/w) %, pH set to 4.7 by HCl); “at least 400 times” in data set [3] (Example 12: Hydroxypropyl-β-cyclodextrin/water 28/72 (w/w) %); “at least 80 times” in data set [3] (Example 13: PEG 400/ethanol/solutol/water 50/5/5/40 (w/w) %); “at least 200 times” in data set [3] (Example 14: PEG 400/water 40/60 (w/w) %); “at least 250 times” in data set [3] (Example 15: PEG 400/water 35/65 (w/w) %, water with 50 μmol/mL tartaric acid). Moreover, the “solubility in this vehicle compared to water alone” value is given as “at least 300 times” in data set [3] (Example 16: PEG 400/water 50/50 (w/w) %); “at least 400 times” in data set [3] (Example 17: PEG 400/water 67/33 (w/w) %); “at least 450 times” in data set [3] (Example 18: PEG 400/ethanol/water 45/1/54 (w/w) %); “at least 800 times” in data set [3] (Example 19: acidified PEG 400/ethanol/water 45/1/54, tartaric acid, HCl to pH 4.2); “at least 500 times” in data set [3] (Example 20: PEG 400/ethanol/water 45/2/53 (w/w) %); “at least 800 times” in data set [3] (Example 21: acidified PEG 400/ethanol/water 45/2/53, tartaric acid, HCl to pH 4.3). The “solubility in this vehicle compared to water alone” value in data set [3] (Example 22: DMA/water 50/50 (w/w) %) is given as “at least 230 times”; in data set [3] (Example 23: DMA/water 25/75 (w/w) %) it was “at least 150 times”; in data set [3] (Example 24: water with double equimolar HCl, pH adjusted to 3.6), “at least 20 times”; in data set [3] (Example 25: water, HCl to pH 1, then NaOH to pH 3.0) it was “at least 40 times”; in data set [3] (Example 26: DMA/miglyol (miglyol 0.25 g/g Compound A)), “at least 4000 times”; in data set [3] (Example 27: Ethanol/Miglyol (miglyol 0.25 g/g Compound A)) it was “at least 4000 times”. In addition, the “solubility in this vehicle compared to water alone” value in data set [3] (Example 57: PEG 400/ethanol/water 25/10/65 (w/w) %) is “at least 100 times”; in data set [3] (Example 58: PEG 400/ethanol/water 50/10/40 (w/w) %) it was “at least 2000 times”; in data set [3] (Example 59: PEG 400/ethanol/water 40/10/50 (w/w) %), “at least 1500 times”; in data set [3] (Example 60: ethanol, citric acid and water, pH set to 3.2), “at least 100 times”. For the same molecule, the “pH of this solution” value in “pH of the formulation” (Example 6: 51 μmol/mL in PEG 400/ethanol/water 20/10/70, water with 50 μmol/mL tartaric acid) amounted to 3.6.
`CO/N=C(\N)c1cc(F)c(CNC(=O)[C@@H]2CCN2C(=O)[C@H](O)c2cc(Cl)cc(OC(F)F)c2)c(F)c1` [Compound B, Ph(3-Cl)(5-OCHF2)—(R)CH(OH)C(O)—(S)Aze-Pab(2,6-diF)(OMe)]: the “time the formulation is stable” value in data set [1] (Example 69: 0.5 mg/mL in PEG 400/ethanol/water 50/5/45, at <−15° C.) is “at least 1 month”. Besides, in data set [2], the nanoparticle size result is “about 110 nm” and the “particle sizes after 6 hours at room temperature” value was “unchanged”.
Consider `CO/N=C(\N)c1ccc(CNC(=O)[C@@H]2CCN2C(=O)[C@H](O)c2cc(Cl)cc(OCCF)c2)cc1` [Compound C, Ph(3-Cl)(5-OCH2CH2F)—(R)CH(OH)C(O)—(S)Aze-Pab(OMe)], for which the “time the formulation is stable” value in data set [1] (Example 73: 0.5 mg/mL in PEG 400/ethanol/water 50/5/45, at room temperature and below) is “at least 1 month”; in data set [1] (Example 74: Hydroxypropyl-β-cyclodextrin/water 20/80, at <8° C.), “at least 2 weeks”.
In the case of `N=C(N)c1ccc(CNC(=O)[C@@H]2CCN2C(=O)[C@H](O)c2cc(Cl)cc(OC(F)F)c2)cc1` [Compound D, Ph(3-Cl)(5-OCHF2)—(R)CH(OH)C(O)—(S)Aze-Pab], the “plasma concentration after 1 hour” value in data set [4] (oral, dosed: Compound A 4 μmol/mL in saline/ethanol/solutol 90/5/5) was 0.56 µM; in data set [4] (subcutaneous, dosed: Compound A 4 μmol/mL in saline/ethanol/solutol 90/5/5), 0.24 µM; in data set [4] (subcutaneous, dosed: Compound D trifluoroacetate salt 4 μmol/mL in saline/ethanol) it was 0.55 µM. Further, the “time the formulation is stable” value in data set [1] (Example 64: acidified PEG 400/ethanol/water 40/5/55, pH 3.6, at <−15° C.) is reported as “at least 2 months”.
On to `N=C(N)c1cc(F)c(CNC(=O)[C@@H]2CCN2C(=O)[C@H](O)c2cc(Cl)cc(OC(F)F)c2)c(F)c1` [Compound E, Ph(3-Cl)(5-OCHF2)—(R)CH(OH)C(O)—(S)Aze-Pab(2,6-diF)], for which the “plasma concentration after 1 hour” value was 0.65 µM in data set [4] (oral, dosed: Compound B 4 μmol/mL in saline/ethanol/solutol 90/5/5); 0.3 µM in data set [4] (subcutaneous, dosed: Compound B 4 μmol/mL in saline/ethanol/solutol 90/5/5); 0.75 µM in data set [4] (subcutaneous, dosed: Compound E acetate salt 4 μmol/mL in saline/ethanol). For the same molecule, in “pH of the formulation” (Example 72: dissolved in 9 mg/ml NaCl), the “pH obtained in this formulation” value was 8-9.
As to `N=C(N)c1ccc(CNC(=O)[C@@H]2CCN2C(=O)[C@H](O)c2cc(Cl)cc(OCCF)c2)cc1` [Compound F, Ph(3-Cl)(5-OCH2CH2F)—(R)CH(OH)C(O)—(S)Aze-Pab], the “plasma concentration after 1 hour” value in data set [4] (oral, dosed: Compound C 4 μmol/mL in saline/ethanol/solutol 90/5/5) is 0.5 µM; in data set [4] (subcutaneous, dosed: Compound C 4 μmol/mL in saline/ethanol/solutol 90/5/5) it was 0.5 µM; in data set [4] (subcutaneous, dosed: Compound F trifluoroacetate salt 4 μmol/mL in saline/ethanol) it was 0.92 µM. Besides, the “time the formulation is stable” value in data set [1] (Example 75: 9 mg/ml NaCl, at room temperature and below) is on record as “at least 2 weeks”. Further, the “pH obtained in this formulation” value in “pH of the formulation” (Example 75: dissolved in 9 mg/ml NaCl) is on record as 3-4.
